These are literature values, as cited in patent publication US20160303050A1, “FORMULATIONS CONTAINING DIACEREIN AND METHODS OF LOWERING BLOOD LEVELS OF URIC ACID USING THE SAME” (TWi Biotechnology, Inc., priority 2015, published 2016).

The conditions of this data set: single oral administration of 50 mg, healthy volunteers.

`CC(=O)Oc1cccc2c1C(=O)c1c(OC(C)=O)cc(C(=O)O)cc1C2=O` [diacerein, 4,5-bis (acetyloxy) 9,10-dihydro-4,5-dihydroxy-9,10-dioxo-2-anthracenecarboxylic acid]: under “fasting”, the “fasting Tmax” value is 2.4 h. The “Tmax with a meal” value (with a meal) was 5.2 h.
